Assay results from publication PMC4222603, “Dual inhibition of HIV-1 replication by integrase-LEDGF allosteric inhibitors is predominant at the post-integration stage” (Retrovirology, 2013).
Where two headings read alike, the source gives them in different places.

Legend:
[1] = tested on: NL4-3 RT M41L, D67N, T69N, K70R, T215F, K219E; test: Antiviral assay on NRTI-resistant virus; type: cell-based, HIV-1; conditions: ratio EC50 resistant virus / wt virus
[2] = tested on: NL4-3 Integrase G140S, Q148H; test: Antiviral assay on INSTI-resistant virus; type: cell-based, HIV-1; conditions: ratio EC50 resistant virus / wt virus
[3] = tested on: VSV-G-pseudotyped NL4-3Δenv-luc; test: microbe, parasite or virus in culture; type: cell-based, HIV-1; conditions: for EC50: Human immunodeficiency virus 1, NL43, MT4, read-out: NL4-3 EC50 Single-round
HIV-1 NL4-3 = test: Antiviral assay in MT-4 cells, multiple-round infection, CellTiter-Glo; type: cell-based
Experimental: MT-4 cells growing exponentially at the density of 10^6/mL were infected with HIV-1 strain NL4-3 at a MOI (multiplicity of infection) of 0.001 for 2 h. The cells were washed with PBS and aliquoted, using 100 μL fresh complete RPMI, into 96-well white plates (Corning) in the presence of different concentrations of compounds.

NL4-3 RT K103N, Y181C = test: Antiviral assay on NNRTI-resistant virus; type: cell-based, HIV-1; conditions: ratio EC50 resistant virus / wt virus
[4] = tested on: NL4-3 RT M41L, D67N, K103N, M184V, L210W, T215Y; test: Antiviral assay on Multi-drug (NRTI + NNRTI) resistant virus; type: cell-based, HIV-1; conditions: ratio EC50 resistant virus / wt virus; NRTI + NNRTI mutations
[5] = tested on: NL4-3 Protease L10R, M46I, L63P, V82T, I84V; test: Antiviral assay on PI-resistant virus; type: cell-based, HIV-1; conditions: ratio EC50 resistant virus / wt virus
in vitro = type: cell-based; conditions: human
Experimental: Growth inhibition was monitored in a proliferating human T-cell line (MT-4) with different concentrations of compounds. ATP levels were quantified using the CellTiter-Glo® luminescent reagent (Promega) to measure the ability of a compound to inhibit cell growth, an indication of the compound’s cytotoxicity. Cytotoxicity was evaluated at either day 2 or day 5.

IN-LEDGF/p75 interaction = IN-LEDGF/p75 interaction (Human immunodeficiency virus type 1 group M subtype B, UniProt P12497); test: biochemical; conditions: IN-LEDGF IC50, Table 1; HTRF, full length proteins
Experimental: IN-LEDGF HTRF® assay was performed in 384-well low volume black polystyrene plates (Corning) using IN-LEDGF assay buffer (25 mM Tris–HCl pH 7.4, 150 mM NaCl, 2 mM MgCl2, 0.4 M KF, 0.1% Igepal CA-630, 0.1% bovine serum albumin, 1 mM DTT). […] The HTRF ratio was converted to % inhibition and analyzed by fitting a sigmoidal dose–response equation with Hill slope to determine the IC50 of the compound.

HxB2 HIV-1 = test: Antiviral assay in MT4 cells infected with HxB2; type: cell-based; conditions: Human immunodeficiency virus 1, HXB2, MT4; Table 1; read-out: HxB2 EC50 (MT4 assays)
[6] = molecular target: T1, IN-CCD/LEDGF-IBD interaction (Human immunodeficiency virus type 1 group M subtype B, UniProt P12497, F1332K); test: HTRF-based CCD-IBD interaction assay; type: binding, HIV-1; conditions: Table 1
T1 construct: cloning the integrase region (residues 50 to 202, encoding the catalytic core domain); made in house
Text: All HTRF® conjugated monoclonal antibodies were purchased from Cisbio Bioassays.

[7] = molecular target: T2, IN strand transfer activity (Human immunodeficiency virus type 1 group M subtype B, UniProt P12497); test: IN strand transfer ELISA assay; type: biochemical, HIV-1; conditions: for IC50: Table 1, ELISA, read-out: IN ST IC50; for IN ST plateau (%): inhibition plateau, concentrations up to 100 μM
T2 construct: loaded on a Superdex 200 16/600 PG column (for full length IN); made in house
Experimental: IN strand transfer ELISA assay has been adapted from. […] 16 μL of IN mixture (20 mM HEPES pH 7.5, 10 mM MgCl2, 1 mM DTT, 0.50 μM His6-IN) was added. […] The reaction was stopped by addition of 60 μL stop mixture (20 mM Tris–HCl pH 7.6, 0.4 M NaCl, 10 mM Na2EDTA, 0.1 mg/mL salmon sperm DNA) and the volume transferred to Reacti-Bind high-binding capacity streptavidin-coated white plates (Thermo Scientific Pierce). After 1 h incubation at room temperature under gentle shaking, integrase and unjoined DNA were removed by three washes with 200 μL wash solution 1 (30 mM NaOH, 0.2 M NaCl, 1 mM Na2EDTA). 100 μL of 2000-fold diluted HRP-conjugated anti-DIG Fab (Roche Applied Science) was added and the plate was incubated for 1 h at 37°C. Unbound antibody was removed with wash solution 2 (PBS pH 7.4, 0.05% Tween-20, 0.1% bovine serum albumin), 100 μL of SuperSignal Femto ELISA substrate (Thermo Scientific Pierce) was added and chemiluminescence was immediately read in a PHERAstar Plus with LUM-plus module. The signal, converted to % inhibition, was analyzed by fitting a sigmoidal dose–response curve to determine IC50 and the inhibition plateau.

[8] = tested on: HIV-1 LAV virions produced by HeLa-LAV cells; test: Virions produced by compound-treated HeLa-LAV cells: p24 and infectivity; type: cell-based; conditions: luciferase assay in TZM cells
[9] = Human immunodeficiency virus 1, NL43, MT4, Table 3, mean of two independent experiments, read-out: EC50 NL4-3 WT
[10] = Human immunodeficiency virus 1, NL43, MT4 cells, mean of six independent experiments, read-out: NL4-3 EC50 Multiple-round
[11] = Human immunodeficiency virus 1, NL43, MT4, Table 1, read-out: NL4-3 EC50 (MT4 assays)

| SMILES | EC50 fold change NRTIs [1] | EC50 fold change INSTIs [2] | NL4-3 EC50 Single-round [3] | EC50 (HIV-1 NL4-3; [9]) | EC50 (HIV-1 NL4-3; [10]) | EC50 fold change NNRTIs (NL4-3 RT K103N, Y181C) | EC50 fold change Multi-drug [4] | EC50 fold change PI [5] | CC50 (in vitro) | IC50 (IN-LEDGF/p75 interaction) | Inhibition in single-round infection assay [3] | SR/MR ratio [3] | EC50 (HIV-1 NL4-3; [11]) | EC50 (HxB2 HIV-1) | IC50 [6] | EC50 [3] | IC50 [7] | IN ST plateau (%) [7] | Infectivity of virions from treated HeLa-LAV cells [8] |
| --- | --- | --- | --- | --- | --- | --- | --- | --- | --- | --- | --- | --- | --- | --- | --- | --- | --- | --- | --- |
| CC(C)(C)NC(=O)[C@@H]1CN(Cc2cccnc2)CCN1C[C@@H](O)C[C@@H](Cc1ccccc1)C(=O)N[C@H]1c2ccccc2C[C@H]1O [IDV, Indinavir] | 1 | 1 | Inactive | 0.032 µM | 0.036 µM | 1 | 1 | 9 | – | – | – | – | – | – | – | – | – | – | – |
| Cc1nc2c(c(-c3ccccc3)c1C(OC(C)(C)C)C(=O)O)CCCC2 (stereo not drawn) [Mut075, 2-(tert-butoxy)-2-(2-methyl-4-phenyl-5,6,7,8-tetrahydro-quinolin-3-yl)acetic acid] | – | – | – | – | 3.4 ± 1 µM | – | – | – | > 50 µM | 4 µM | 23% @50 | >25 | 3.4 µM | 1 µM | 14 µM | – | – | – | – |
| CC(C)(C)OC(C(=O)O)c1c(-c2ccc3c(c2)CCCO3)ccc2ccccc12 (stereo not drawn) [Mut047, 2-(tert-butoxy)-2-[2-(3,4-dihydro-2H-1-benzopyran-6-yl)naphthalene-1-yl]acetic acid] | – | – | – | – | 16 ± 7 µM | – | – | – | > 50 µM | 7.9 µM | – | 2.3 | 16 µM | 19 µM | 3.8 µM | 37 ± 2 µM | 0.88 µM | 70% | – |
| Cc1ccnc2c1NC(=O)c1cccnc1N2C1CC1 [NVP, Nevirapine] | 3 | 1 | – | 0.16 µM | 0.086 ± 0.012 µM | 287 | 14 | 1 | – | – | – | – | – | – | – | 0.041 ± 0.008 µM | – | – | – |
| O=C1Nc2ccc(Cl)cc2[C@@](C#CC2CC2)(C(F)(F)F)O1 [EFV, Efavirenz, reference compound] | – | – | – | – | 0.0013 ± 0.0002 µM | – | – | – | – | – | – | 0.9 | – | – | – | 0.0012 ± 0.0004 µM | – | – | – |
| CC(C)(C)OC(C(=O)O)c1ccc(Oc2ccccc2)cc1-c1ccc2c(c1)CCCO2 (stereo not drawn) [Mut063, 2-(tert-butoxy)-2-[2-(3,4-dihydro-2H-1-benzopyran-6-yl)-4-phenoxyphenyl]acetic acid] | – | – | – | – | – | – | – | – | > 50 µM | > 100 µM | – | – | > 50 µM | – | > 100 µM | – | > 100 µM | – | no infectivity defect |
| Cc1nc2ccccc2c(C2CCCCC2)c1C(OC(C)(C)C)C(=O)O (stereo not drawn) [Mut049, 2-(tert-butoxy)-2-(4-cyclohexyl-2-methylquinolin-3-yl)acetic acid] | – | – | – | – | 2 ± 0.1 µM | – | – | – | > 50 µM | 3.5 µM | – | 21 | 2 µM | 0.75 µM | 18 µM | 41 ± 2 µM | 0.18 µM | 56% | – |
| CC(C)(C)OC(C(=O)O)c1c(-c2ccc3c(c2)CCCO3)ccc2ncccc12 (stereo not drawn) [Mut029, 2-(tert-butoxy)-2-[6-(3,4-dihydro-2H-1-benzopyran-6-yl)quinolin-5-yl]acetic acid] | – | – | – | – | 3.8 ± 1.6 µM | – | – | – | > 50 µM | 2.5 µM | – | 8 | 3.8 µM | 3.8 µM | 1.7 µM | 30 ± 4 µM | – | – | – |
| Cc1cn([C@H]2C[C@H](N=[N+]=[N-])[C@@H](CO)O2)c(=O)[nH]c1=O [AZT, Zidovudine] | 88 | 0.4 | – | 0.14 µM | – | 0.1 | 10 | 1 | – | – | – | – | – | – | – | 0.0025 ± 0.0003 µM | – | – | – |
| CC(C)(C)OC(C(=O)O)C1=C(c2ccc3c(c2)CCCO3)c2ccccc2OC1 (stereo not drawn) [Mut062, 2-(tert-butoxy)-2-[4-(3,4-dihydro-2H-1-benzopyran-6-yl)-2H-chromen-3-yl]acetic acid] | – | – | – | – | 3.3 ± 1.5 µM | – | – | – | > 50 µM | 3.1 µM | 30% @50 | >25 | 3.3 µM | 1.3 µM | 2.7 µM | – | 0.54 µM | 73% | – |
